# Experimental data as given in patent US8173695B2, “Kappa selective opioid receptor antagonist” (Eli Lilly and Company, priority 2008, dated 2012).
# “And” between values parts separate entries of the source, which are not always exact repeats. Equal entries are not always repeated.
# Legend:
# Male Fischer F-344 rats = assay: Stress-induced hyperthermia (in rat); format: in vivo; conditions: for stress-induced hyperthermia (T2−T1): in °C
# Male NIH-Swiss mice = assay: Mouse forced swim test; format: in vivo; conditions: for immobility in mouse forced swim test, Mean: 30 min
# Source text: This test evaluates the effect of test compound on mice mobility as a measure of antidepressant effect. The less immobility compared to vehicle, the more pronounced the antidepressant-like effect.
# Male, NIH-Swiss mice (25-30 g) (Harlan Sprague-Dawley, Indianapolis, Ind., USA) are housed in a vivarium for at least one week prior to use with water and rodent chow freely available during this acclimation period. Animals are removed from the vivarium to the testing area in their home cages and allowed to adapt to the new environment for at least one hour before testing.
# Mice are placed in clear plastic cylinders (diameter: 10 cm; height: 25 cm) filled with 6 cm of water (22-25° C.) for six minutes. The duration of immobility during the last four minutes of the six minutes test period is scored. A mouse is recorded as immobile when floating motionless or making only those movements necessary to keep its head above water.
# The test compound is administered p.o. 1 hour prior to testing at 1.0 mg/kg, 3.0 mg/kg and 10.0 mg/kg, n of 8 per group in a vehicle of 5 ml of sterile water and 30 ml of diluted (10×) lactic acid. Imipramine is evaluated as a positive control, 15 mg/kg: p, 30 min. prior to testing n of 4.
# A second study is carried out evaluating 1 and 3 mg/kg doses of the compound of Example 1A alone and in combination with 5 mg/kg of imipramine. Imipramine alone is evaluated at 5 and 15 mg/kg doses and a vehicle control is included in the study. For the combination studies, the compound of Example 1A is administered p.o. 30 minutes prior to administration of imipramine i.p. and the test initiated 30 minutes following imipramine administration. An n of 8 per group is evaluated for all groups. For the evaluations of the compound of Example 1A alone, testing is initiated 60 minutes following administration and testing of imipramine only treated animals is initiated 30 minutes following administration.
# Sprague Dawley rats = assay: Prepulse inhibition, reversal of morphine induced disruption of PPI; format: in vivo, rat; conditions: vehicle/20 mg/kg morphine sc; 20 mg/kg
# [1] = Study 1, positive control 10 mg/kg
smiles,measurement,setting,value
"CNC1=Nc2ccc(Cl)cc2C(c2ccccc2)=[N+]([O-])C1 [CDP, chlordiazepoxide, reference compound]",stress-induced hyperthermia (T2−T1),"Male Fischer F-344 rats; Study 2, 1 mg/kg CDP alone, po",0.75±0.06
"CN(C)CCCN1c2ccccc2CCc2ccccc21 [Imipramine, imipramine, reference compound]","immobility in mouse forced swim test, Mean",Male NIH-Swiss mice; Imipramine 5 mg/kg i.p.,161.94 s
same,"immobility in mouse forced swim test, Mean",Male NIH-Swiss mice; Imipramine 15 mg/kg i.p.,61.70 s
same,"antidepressant effect, in words","Male NIH-Swiss mice; imipramine 15 mg/kg, over vehicle control, p<0.05",statistically significant antidepressant effect
"Cc1nc(C#Cc2cccnc2)cs1 [MTEP, 3-[(2-methyl-1,3-thiazol-4-yl)ethynyl]pyridine, reference compound]",baseline body temperatures,Male Fischer F-344 rats; [1],without affecting
same,"reduction in stress-induced hyperthermia, in words","Male Fischer F-344 rats; Study 1, positive control 10 mg/kg, p<0.05",significantly reduces
same,stress-induced hyperthermia (T2−T1),Male Fischer F-344 rats; [1],0.42±0.09
"CN1CC[C@]23c4c5ccc(O)c4O[C@H]2[C@@H](O)C=C[C@H]3[C@H]1C5 [morphine, reference compound]","% Inhibition (PPI), individual rats",Sprague Dawley rats,26.99% and −12.64% and 34.65% and 32.59% and 5.49% and 49.11% and 53.95% and 44.81% and 35.01% and −9.49% and 51.85% and 24.04% and 4.72% and 50.03%
